Results from patent US20230312587A1, “PTERIDINONE COMPOUNDS AND USES THEREOF” (Vertex Pharmaceutical Incorporated, priority 2018, published 2023).

Molecular target: Plk1 (Homo sapiens (Human), UniProt P53350)
Experiment: PLK1 inhibition assay (radioactive-phosphate incorporation)
Format: biochemical
Conditions: Ki(app), read-out: PLK1 - 33P.ENZ - CB 10 Ki
Protocol: Compounds were screened for their ability to inhibit Plk1 using a radioactive-phosphate incorporation assay. Assays were carried out in a mixture of 25 mM HEPES (pH 7.5), 10 mM MgCl2, 25 mM NaCl, and 2 mM DTT. Final substrate concentrations were 20 μM [γ-33P]ATP (35mCi 33P ATP/mmol ATP, Perkin Elmer/Sigma Chemicals) and 9 uM Sam68 protein. Assays were carried out at room temperature in the presence of 15 nM Plk1. An assay stock buffer solution was prepared containing all of the reagents listed above, with the exception of ATP and the test compound of interest. 0.75 μL of DMSO stock containing serial dilutions of the test compound (typically starting from a final concentration of 10 μM with 2-fold serial dilutions—final DMSO concentration 1.5%) was placed in a 384 well plate followed by addition of 25 μL [γ-33P]ATP (final concentration 20 μM). The reaction was initiated by addition of 25 μL of the assay stock buffer solution.
The reaction was stopped after 45 minutes by the addition of 25 μL 30% trichloroacetic acid (TCA) containing 10 mM cold ATP. The entire quenched reaction was transferred to a 384-well glass fiber filter plate (Millipore, Cat no. MZFBNOW50). The plate was washed with 3×5% TCA. After drying, 40 μL of Ultima Gold liquid scintillation cocktail (Perkin Elmer) was added to the well prior to scintillation counting in a PerkinElmer TopCount.
After removing mean background values for all of the data points, Ki(app) data were calculated from non-linear regression analysis of the initial rate data using the Prism software package (GraphPad Prism, GraphPad Software, San Diego California, USA).

Plk1, sequence (P53350 whole entry, species assumed): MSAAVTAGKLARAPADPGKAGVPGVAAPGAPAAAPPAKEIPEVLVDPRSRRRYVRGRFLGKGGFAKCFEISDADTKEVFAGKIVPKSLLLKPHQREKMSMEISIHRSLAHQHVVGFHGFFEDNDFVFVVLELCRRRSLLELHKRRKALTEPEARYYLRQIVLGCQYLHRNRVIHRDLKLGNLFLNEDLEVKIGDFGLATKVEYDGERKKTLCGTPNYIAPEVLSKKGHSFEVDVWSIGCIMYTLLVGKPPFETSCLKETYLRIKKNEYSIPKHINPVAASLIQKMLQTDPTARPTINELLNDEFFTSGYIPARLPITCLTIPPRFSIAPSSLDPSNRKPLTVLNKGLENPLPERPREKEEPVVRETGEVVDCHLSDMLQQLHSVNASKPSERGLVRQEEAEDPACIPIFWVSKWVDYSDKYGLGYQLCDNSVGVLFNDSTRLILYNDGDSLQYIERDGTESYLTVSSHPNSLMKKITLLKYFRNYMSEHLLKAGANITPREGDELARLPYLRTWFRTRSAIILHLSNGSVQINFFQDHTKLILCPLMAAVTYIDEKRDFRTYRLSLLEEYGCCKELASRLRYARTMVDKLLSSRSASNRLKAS

| Ki [µM] | Compound |
| --- | --- |
| > 4 | Cc1nc(NCc2cnn(Cc3ccc(F)cc3)c2)nc2c1NC(=O)[C@H](C)N2C [Compound 4, (7S)-2-(((1-(4-fluorobenzyl)-1H-pyrazol-4-yl)methyl)amino)-4,7,8-trimethyl-7,8-dihydropteridin-6(5H)-one] |
| > 4 | Cc1nc(NCc2cnn(Cc3cc(C(F)(F)F)nn3C)c2)nc2c1NC(=O)[C@H](C)N2C [Compound 160, (7S)-4,7,8-trimethyl-2-(((1-((1-methyl-3-(trifluoromethyl)-1H-pyrazol-5-yl)methyl)-1H-pyrazol-4-yl)methyl)amino)-7,8-dihydropteridin-6(5H)-one] |

The next lines start with the compound.

| Compound | Ki [µM] |
| --- | --- |
| Cc1nc(N[C@H]2C[C@H](Oc3ccnc(C(F)(F)F)c3)C2)nc2c1NC(=O)[C@H](C)N2C [Compound 335, (7S)-4,7,8-trimethyl-2-((trans-3-((2-(trifluoromethyl)pyridin-4-yl)oxy)cyclobutyl)amino)-7,8-dihydropteridin-6(5H)-one] | > 4 |
| Cc1nc(N[C@@H]2CC[C@@H](n3ccc(C(F)(F)F)n3)C2)nc2c1NC(=O)[C@H](C)N2C (single isomer, unassigned) [Compound 311] | > 4 |

System: HepG2 WFS1 KO
Experiment: In vitro cell viability (CellTiter-Glo), HepG2 WFS1 KO
Format: cell-based
Conditions: HepG2 WFS1 knockout, 96 hours; read-out: HepG2 WFS1 KO viability
Source text: A double cleavage strategy was employed to remove large fragments from the WFS1 locus. Suitable target sites in WFS1 exon 8 were first selected using CRISPR design software to rank suitable target sites and computationally predict off-target sites for each intended target. Six top guide RNA sequences are identified and screened for activity using the Surveyor Mutation Detection Kit (Integrated DNA Technologies). Then, the best 2 guide RNAs were cloned into GeneArt OFP CRISPR nuclease vectors (Thermofisher, Cat #A21174) separately and co-transfected into HepG2 cells using nucleofection (4D Nucleofector X, Lonza). Cells were sorted by FACS 48 hrs later to enrich for the OFP positive cell population. The OFP positive cell population were plated into 96-well plates at 0.5-5 cells/well to isolate clonal cell lines. After allowing cells to expand for 2-3 weeks, plates were inspected for presence of colonies. When colonies became more than 70% confluent, they were dissociated with trypsin and were further expanded. Cell clones with homozygous double cleavage of WFS1 exon 8 were detected with PCR and confirmed with DNA sequencing.
HEK293 cells containing empty pCLPCx vector (HEK293 empty), HEK293 cells stably over-expression WFS1 (HEK293 WFS1), HepG2, and HepG2 cells where WFS1 was depleted via CRISPR/Cas9 (HepG2 WFS1 KO) cells were plated into 96-well black plates (Corning, product #3904) in 100 microliters of complete DMEM cell culture media [DMEM (Life Technologies, product #11960-051) media supplemented with 10% FBS (Hyclone, catalog #SH30071.03), antimycotic/antibiotic (Life Technologies, product #15240-062), and Glutamax (Life Technologies, product #35050-061)] at 1,000 (HEK293) or 5,000 (HepG2) cells per well. Cells were allowed to attach and grow overnight, after which compounds are added at various concentrations. Cell viability was assessed 96 hrs after compound addition with CellTiter-Glo reagent (Promega, catalog #G7570) according to manufacturer's protocol and measurement on a Pherastar luminescence plate reader (BMG Labtech).
To determine the effect of WFS1 depletion on compound mediated inhibition of cell viability, parental HepG2 cells and HepG2 cells where WFS1 was deleted by CRISPR/Cas9 were exposed to increasing concentrations of either Compound 136 or Compound 253 for 96 hours after which time viability was determined using Cell Titer Glo reagent (Promega). […] The IC50s for the viability of both the HepG2 parental and WFS1 knockout cells are summarized in Table 47: A<0.5 μM; 0.5 μM≤<2.0 μM; 2.0 μM≤C<10.0 μM; D≥[…].

| Compound | IC50 [µM] |
| --- | --- |
| Cc1nc(NCc2cnn(Cc3ccc(F)nc3)c2)nc2c1NC(=O)[C@H](C1CC1)N2C [Compound 421, (7S)-7-cyclopropyl-2-(((1-((6-fluoropyridin-3-yl)methyl)-1H-pyrazol-4-yl)methyl)amino)-4,8-dimethyl-7,8-dihydropteridin-6(511)-one] | ≥ 10 |
| (7S)-2-(((1-((6-fluoro-2-isopropylpyridin-3-yl)methyl)-1H-pyrazol-4-yl)methyl)(methyl)amino)-7-isopropyl-4,8-dimethyl-7,8-dihydropteridin-6(5H)-one [Compound 430] | ≥ 10 |

Same assay, conditions: Homo sapiens; HepG2 WFS1 knockout, 96 hours; read-out: HepG2 WFS1 KO viability

| IC50 [µM] | Compound |
| --- | --- |
| ≥ 10 | Cc1nc(NCc2cnn(Cc3ccc(C(F)(F)F)nc3C(C)O)c2)nc2c1NC(=O)[C@H](C)N2C (stereo partly drawn) [Compound 419, (7S)-2-(((1-((2-((S)-1-hydroxyethyl)-6-(trifluoromethyl)pyridin-3-yl)methyl)-1H-pyrazol-4-yl)methyl)amino)-4,7,8-trimethyl-7,8-dihydropteridin-6(5H)-one] |
| ≥ 10 | Cc1ncc(Cn2cc(CNc3nc(C)c4c(n3)N(C)[C@@H](C)C(=O)N4)cn2)cn1 [Compound 163, (7S)-4,7,8-trimethyl-2-(((1-((2-methylpyrimidin-5-yl)methyl)-1H-pyrazol-4-yl)methyl)amino)-7,8-dihydropteridin-6(5H)-one] |
| ≥ 10 | Cc1nc(NCc2cnn(C[C@H](C)c3ccc(F)cc3)c2)nc2c1NC(=O)[C@H](C)N2C [Compound 96, (7S)-2-(((1-((R)-2-(4-fluorophenyl)propyl)-1H-pyrazol-4-yl)methyl)amino)-4,7,8-trimethyl-7,8-dihydropteridin-6(5H)-one] |
| ≥ 10 | Cc1cc(F)ncc1Cn1cc(CNc2nc(C)c3c(n2)N(C)[C@@H](C(C)C)C(=O)N3)cn1 [Compound 423, (7S)-2-(((1-((6-fluoro-4-methylpyridin-3-yl)methyl)-1H-pyrazol-4-yl)methyl)amino)-7-isopropyl-4,8-dimethyl-7,8-dihydropteridin-6(5H)-one] |
| ≥ 10 | Cc1nc(NCc2cnn(Cc3cncc(F)c3)c2)nc2c1NC(=O)[C@H](C(C)C)N2C [Compound 415, (7S)-2-(((1-((5-fluoropyridin-3-yl)methyl)-1H-pyrazol-4-yl)methyl)amino)-7-isopropyl-4,8-dimethyl-7,8-dihydropteridin-6(5H)-one] |
| ≥ 10 | Cc1nn(C)cc1Cn1cc(CNc2nc(C)c3c(n2)N(C)[C@@H](C)C(=O)N3)cn1 [Compound 139, (7S)-2-(((1-((1,3-dimethyl-1H-pyrazol-4-yl)methyl)-1H-pyrazol-4-yl)methyl)amino)-4,7,8-trimethyl-7,8-dihydropteridin-6(5H)-one] |
| ≥ 10 | Cc1nc(NCc2cnn(Cc3ccc(Cl)nc3)c2)nc2c1NC(=O)[C@H](C(C)C)N2C [Compound 409, (7S)-2-(((1-((6-chloropyridin-3-yl)methyl)-1H-pyrazol-4-yl)methyl)amino)-7-isopropyl-4,8-dimethyl-7,8-dihydropteridin-6(5H)-one] |
| ≥ 10 | Cc1nc(NCc2cnn(Cc3cnc(Cl)c(F)c3)c2)nc2c1NC(=O)[C@H](C(C)C)N2C [Compound 424, (7S)-2-(((1-((6-chloro-5-fluoropyridin-3-yl)methyl)-1H-pyrazol-4-yl)methyl)amino)-7-isopropyl-4,8-dimethyl-7,8-dihydropteridin-6(5H)-one] |
| ≥ 10 | Cc1nc(NCc2cnn(Cc3ccc(C(F)(F)F)nc3[C@@H](C)O)c2)nc2c1NC(=O)[C@H](C)N2C (single isomer, unassigned) [Compound 420] |

More lines, now with the values behind:

| Compound | IC50 [µM] |
| --- | --- |
| CC[C@H]1C(=O)Nc2cnc(NCc3cnn(Cc4ccc(C(F)(F)F)nc4)c3)nc2N1C [Compound 427, (7S)-7-ethyl-8-methyl-2-(((1-((6-(trifluoromethyl)pyridin-3-yl)methyl)-1H-pyrazol-4-yl)methyl)amino)-7,8-dihydropteridin-6(5H)-one] | ≥ 10 |
| Cc1nc(NCc2cnn(CCC3CCOCC3)c2)nc2c1NC(=O)[C@H](C)N2C [Compound 115, (7S)-4,7,8-trimethyl-2-(((1-(2-(tetrahydro-2H-pyran-4-yl)ethyl)-1H-pyrazol-4-yl)methyl)amino)-7,8-dihydropteridin-6(5H)-one] | ≥ 10 |
| Cc1nc(NCc2cnn(CC(C)(O)c3ccc(F)cc3)c2)nc2c1NC(=O)[C@H](C)N2C (stereo partly drawn) [Compound 128, (7S)-2-(((1-(2-(4-fluorophenyl)-2-hydroxypropyl)-1H-pyrazol-4-yl)methyl)amino)-4,7,8-trimethyl-7,8-dihydropteridin-6(5H)-one] | ≥ 10 |
| Cc1nc(NCc2cnn(C3CCN(C(=O)c4ccc(F)cc4)CC3)c2)nc2c1NC(=O)[C@H](C)N2C [Compound 125, (7S)-2-(((1-(1-(4-Fluorobenzoyl)piperidin-4-yl)-1H-pyrazol-4-yl)methyl)amino)-4,7,8-trimethyl-7,8-dihydropteridin-6(5H)-one] | ≥ 10 |
| Cc1cnc(C(F)(F)F)nc1-n1cc(CNc2ncc3c(n2)N(C)[C@@H](C)C(=O)N3)cn1 [Compound 164, (7S)-7,8-dimethyl-2-(((1-(5-methyl-2-(trifluoromethyl)pyrimidin-4-yl)-1H-pyrazol-4-yl)methyl)amino)-7,8-dihydropteridin-6(5H)-one] | ≥ 10 |
| CCOc1ccc(CCn2cc(CNc3ncc4c(n3)N(C)[C@@H](C)C(=O)N4)cn2)cc1 [Compound 121, (7S)-2-(((1-(4-ethoxyphenethyl)-1H-pyrazol-4-yl)methyl)amino)-7,8-dimethyl-7,8-dihydropteridin-6(5H)-one] | ≥ 10 |
| Cc1nc(NCc2cnn(Cc3ccc(F)cc3)c2)nc2c1NC(=O)C1(CC1)N2 [Compound 222, 2′-(((1-(4-fluorobenzyl)-1H-pyrazol-4-yl)methyl)amino)-4′-methyl-5′,8′-dihydro-6′H-spiro[cyclopropane-1,7′-pteridin]-6′-one] | ≥ 10 |
| Cc1nc(NCc2cn(Cc3ccc(C(F)(F)F)nc3)cn2)nc2c1NC(=O)[C@H](C)N2C [Compound 428, (S)-4,7,8-trimethyl-2-(((1-((6-(trifluoromethyl)pyridin-3-yl)methyl)-1H-imidazol-4-yl)methyl)amino)-7,8-dihydropteridin-6(5H)-one] | ≥ 10 |
